Measured values as given in US8729082B2, “Substituted imidazoquinoxalines” (Bayer Intellectual Property GmbH, priority 2009, dated 2014).

target: T1, human kinase Mps-1 (Homo sapiens, UniProt P33981); test: Mps-1 kinase assay (HTRF); type: biochemical; details: lowATP; mean; read-out: Mps1 lowATP mean IC50
T1 construct: N-terminally GST-tagged human full length recombinant Mps-1 kinase; purchased Invitrogen, Karslruhe, Germany PV4071
T1 sequence (P33981 1-857): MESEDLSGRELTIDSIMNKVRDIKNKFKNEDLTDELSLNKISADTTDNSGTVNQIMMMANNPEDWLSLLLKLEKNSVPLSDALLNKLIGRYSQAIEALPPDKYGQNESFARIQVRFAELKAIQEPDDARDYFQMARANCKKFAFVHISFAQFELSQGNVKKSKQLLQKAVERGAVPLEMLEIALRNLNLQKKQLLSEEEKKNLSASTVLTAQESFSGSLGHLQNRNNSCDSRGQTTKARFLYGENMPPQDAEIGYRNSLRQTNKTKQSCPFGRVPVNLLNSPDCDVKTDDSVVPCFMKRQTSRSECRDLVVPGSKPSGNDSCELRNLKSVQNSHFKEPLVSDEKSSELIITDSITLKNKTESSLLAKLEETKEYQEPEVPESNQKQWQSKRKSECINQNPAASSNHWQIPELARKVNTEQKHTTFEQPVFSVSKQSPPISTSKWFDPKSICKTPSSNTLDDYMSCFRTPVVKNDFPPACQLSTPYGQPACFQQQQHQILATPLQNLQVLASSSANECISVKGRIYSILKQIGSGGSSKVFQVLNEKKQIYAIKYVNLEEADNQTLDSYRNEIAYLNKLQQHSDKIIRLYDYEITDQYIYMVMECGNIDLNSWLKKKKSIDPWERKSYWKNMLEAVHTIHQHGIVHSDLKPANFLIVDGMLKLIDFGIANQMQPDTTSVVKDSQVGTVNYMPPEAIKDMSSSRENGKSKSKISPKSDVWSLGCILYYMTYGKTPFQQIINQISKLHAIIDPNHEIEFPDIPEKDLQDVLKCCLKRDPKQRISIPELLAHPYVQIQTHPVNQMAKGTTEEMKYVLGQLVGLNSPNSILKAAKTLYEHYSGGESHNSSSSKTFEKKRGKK
Method in brief: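 HTRF readout: EDTA-stopped reactions incubated 1 h with europium anti-phospho(Ser/Thr) antibody and streptavidin-XLent, emission ratio 665/620 nm after 350 nm excitation. Kinase step: compound pre-bound 15 min to ~1 nM GST-Mps-1, then 60 min at 22 °C with ATP and biotin-peptide substrate; inhibition scaled between no-inhibitor (0%) and no-enzyme (100%) controls.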

IC50	SMILES
0.00775 µM	CC(C)CNc1nc2ccccc2n2c(-c3ccc(C(=O)NC4CC4F)cc3)cnc12 (stereo not drawn) [Example 3-21, N-(2-fluorocyclopropyl)-4-{4-[(2-methylpropyl)amino]imidazo[1,2-a]quinoxalin-1-yl}benzamide]
0.214 µM	CC(C)CNc1nc2ccccc2n2c(-c3ccc(C(=O)NC4(C#N)CC4)cc3)cnc12 [Example 3-22, N-(1-cyanocyclopropyl)-4-{4-[(2-methylpropyl)amino]imidazo[1,2-a]quinoxalin-1-yl}benzamide]
0.997 µM	CC(C)CNc1nc2ccccc2n2c(-c3ccc(C(=O)Nc4ccn(C)n4)cc3)cnc12 [Example 3-23, 4-{4-[(2-methylpropyl)amino]imidazo[1,2-a]quinoxalin-1-yl}-N-(1-methyl-1H-pyrazol-3-yl)benzamide]
3.61 µM	CCn1nccc1C(=O)Nc1cccc(NC(=O)c2ccc(-c3cnc4c(NCC(C)C)nc5ccccc5n34)cc2)c1 [Example 3-24, 1-ethyl-N-{3-[(4-{4-[(2-methylpropyl)amino]imidazo[1,2-a]quinoxalin-1-yl}benzoyl)amino]phenyl}-1H-pyrazole-5-carboxamide]
1.42 µM	CC(C)CNc1nc2ccccc2n2c(-c3ccc(C(=O)NC4(c5ccccn5)CC4)cc3)cnc12 [Example 3-25, 4-{4-[(2-methylpropyl)amino]imidazo[1,2-a]quinoxalin-1-yl}-N-[1-(pyridin-2-yl)cyclopropyl]benzamide]
5.86 µM	CC(C)CNc1nc2ccccc2n2c(-c3ccc(C(=O)NCCS(N)(=O)=O)cc3)cnc12 [Example 3-26, 4-{4-[(2-methylpropyl)amino]imidazo[1,2-a]quinoxalin-1-yl}-N-(2-sulfamoylethyl)benzamide]
0.349 µM	CC(C)CNc1nc2ccccc2n2c(-c3ccc(C(=O)Nc4cccc(NC(=O)c5ccncc5)c4)cc3)cnc12 [Example 3-27, N-{3-[(4-{4-[(2-methylpropyl)amino]imidazo[1,2-a]quinoxalin-1-yl}benzoyl)amino]phenyl}pyridine-4-carboxamide]
0.361 µM	CC(C)CNc1nc2ccccc2n2c(-c3ccc(C(=O)Nc4cccc(NC(=O)c5cccnc5)c4)cc3)cnc12 [Example 3-28, N-{3-[(4-{4-[(2-methylpropyl)amino]imidazo[1,2-a]quinoxalin-1-yl}benzoyl)amino]phenyl}pyridine-3-carboxamide]

Continued, compound first:

SMILES	IC50
CC(C)CNc1nc2ccccc2n2c(-c3ccc(C(=O)Nc4cc[nH]n4)cc3)cnc12 [Example 3-1, 4-{4-[(2-methylpropyl)amino]imidazo[1,2-a]quinoxalin-1-yl}-N-(1H-pyrazol-3-yl)benzamide]	3.95 µM
CCCNC(=O)c1ccc(-c2cnc3c(NCC(C)C)nc4ccccc4n23)cc1 [Example 3-2, 4-{4-[(2-methylpropyl)amino]imidazo[1,2-a]quinoxalin-1-yl}-N-propylbenzamide]	0.369 µM
CCN(CC)C(=O)c1ccc(-c2cnc3c(NCC(C)C)nc4ccccc4n23)cc1 [Example 3-3, N,N-diethyl-4-{4-[(2-methylpropyl)amino]imidazo[1,2-a]quinoxalin-1-yl}benzamide]	19.7 µM
CC(C)CNc1nc2ccccc2n2c(-c3ccc(C(=O)NCCO)cc3)cnc12 [Example 3-4, N-(2-hydroxyethyl)-4-{4-[(2-methylpropyl)amino]imidazo[1,2-a]quinoxalin-1-yl}benzamide]	1.79 µM
CC(C)CNc1nc2ccccc2n2c(-c3ccc(C(=O)NCCCN4CCCC4=O)cc3)cnc12 [Example 3-5, 4-{4-[(2-methylpropyl)amino]imidazo[1,2-a]quinoxalin-1-yl}-N-[3-(2-oxopyrrolidin-1-yl)propyl]benzamide]	15.3 µM
CC(C)CNc1nc2ccccc2n2c(-c3ccc(C(=O)NC4CCN(Cc5ccccc5)CC4)cc3)cnc12 [Example 3-7, N-(1-benzylpiperidin-4-yl)-4-{4-[(2-methylpropyl)amino]imidazo[1,2-a]quinoxalin-1-yl}benzamide]	15.8 µM
CCNC(=O)c1ccc(-c2cnc3c(NCC(C)C)nc4ccccc4n23)cc1 [Example 3-8, N-ethyl-4-{4-[(2-methylpropyl)amino]imidazo[1,2-a]quinoxalin-1-yl}benzamide]	0.134 µM
CC(C)CNc1nc2ccccc2n2c(-c3ccc(C(=O)Nc4ccc(S(N)(=O)=O)cc4)cc3)cnc12 [Example 3-9, 4-{4-[(2-methylpropyl)amino]imidazo[1,2-a]quinoxalin-1-yl}-N-(4-sulfamoylphenyl)benzamide]	6.59 µM
CC(C)CNc1nc2ccccc2n2c(-c3ccc(C(=O)Nc4cccc(C(N)=O)c4)cc3)cnc12 [Example 3-10, N-(3-carbamoylphenyl)-4-{4-[(2-methylpropyl)amino]imidazo[1,2-a]quinoxalin-1-yl}benzamide]	0.865 µM
CC(C)CNc1nc2ccccc2n2c(-c3ccc(C(=O)Nc4ccccc4C(N)=O)cc3)cnc12 [Example 3-11, N-(2-carbamoylphenyl)-4-{4-[(2-methylpropyl)amino]imidazo[1,2-a]quinoxalin-1-yl}benzamide]	19.4 µM
CC(C)CNc1nc2ccccc2n2c(-c3ccc(C(=O)NCC(N)=O)cc3)cnc12 [Example 3-12, N-(2-amino-2-oxoethyl)-4-{4-[(2-methylpropyl)amino]imidazo[1,2-a]quinoxalin-1-yl}benzamide]	1.51 µM
C#CCNC(=O)c1ccc(-c2cnc3c(NCC(C)C)nc4ccccc4n23)cc1 [Example 3-13, 4-{4-[(2-methylpropyl)amino]imidazo[1,2-a]quinoxalin-1-yl}-N-(prop-2-yn-1-yl)benzamide]	0.0412 µM
CC(=O)Nc1cccc(NC(=O)c2ccc(-c3cnc4c(NCC(C)C)nc5ccccc5n34)cc2)c1 [Example 3-14, N-[3-(acetylamino)phenyl]-4-{4-[(2-methylpropyl)amino]imidazo[1,2-a]quinoxalin-1-yl}benzamide]	0.624 µM
CC(C)CNc1nc2ccccc2n2c(-c3ccc(C(=O)NC(C)CO)cc3)cnc12 (stereo not drawn) [Example 3-15, N-(1-hydroxypropan-2-yl)-4-{4-[(2-methylpropyl)amino]imidazo[1,2-a]quinoxalin-1-yl}benzamide]	1.09 µM
CC(C)CNc1nc2ccccc2n2c(-c3ccc(C(=O)NCCc4ccncc4)cc3)cnc12 [Example 3-16, 4-{4-[(2-methylpropyl)amino]imidazo[1,2-a]quinoxalin-1-yl}-N-[2-(pyridin-4-yl)ethyl]benzamide]	5.87 µM
CC(C)CNc1nc2ccccc2n2c(-c3ccc(C(=O)NCCC(N)=O)cc3)cnc12 [Example 3-17, N-(3-amino-3-oxopropyl)-4-{4-[(2-methylpropyl)amino]imidazo[1,2-a]quinoxalin-1-yl}benzamide]	7.72 µM
CC(C)CNc1nc2ccccc2n2c(-c3ccc(C(=O)NCCN4CCNC4=O)cc3)cnc12 [Example 3-18, 4-{4-[(2-methylpropyl)amino]imidazo[1,2-a]quinoxalin-1-yl}-N-[2-(2-oxoimidazolidin-1-yl)ethyl]benzamide]	11.9 µM
CNC(=O)CNC(=O)c1ccc(-c2cnc3c(NCC(C)C)nc4ccccc4n23)cc1 [Example 3-19, N-[2-(methylamino)-2-oxoethyl]-4-{4-[(2-methylpropyl)amino]imidazo[1,2-a]quinoxalin-1-yl}benzamide]	11.6 µM
CC(C)CNc1nc2ccccc2n2c(-c3ccc(C(=O)NCCc4cccnc4)cc3)cnc12 [Example 3-20, 4-{4-[(2-methylpropyl)amino]imidazo[1,2-a]quinoxalin-1-yl}-N-[2-(pyridin-3-yl)ethyl]benzamide]	4.48 µM
